Experimental data from the supplement of paper PMC10307832.

Experiments:
Assay in all cases: relative viability (nuclei count vs DMSO), 5 days (fraction); higher = more cells survive
Zosuquidar + Linsitinib = compound: O[C@@H](COc1cccc2ncccc12)CN1CCN([C@@H]2c3ccccc3[C@@H]3[C@H](c4ccccc42)C3(F)F)CC1 [Zosuquidar] + C[C@]1(O)C[C@@H](c2nc(-c3ccc4ccc(-c5ccccc5)nc4c3)c3c(N)nccn32)C1 [Linsitinib] (partner 1 µM)
In short: (§1)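 Values are medians from duplicate plates. Each reflects relative viability, defined as the nuclei count of treated wells over that of vehicle wells. Lung cancer cell lines in 1536-well plates were pin-tool dosed one day after seeding with one drug alone or with a fixed anchor-drug dose plus five library-drug doses (not always all listed) in √10 steps, then fixed, stained and imaged at 4× after 5 days.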

[1] = compound: COc1cc2nccc(Oc3ccc(NC(=O)C4(C(=O)Nc5ccc(F)cc5)CC4)cc3)c2cc1OC [Cabozantinib] + O=C(CCCCCCC(=O)Nc1ccccc1)NO [Vorinostat] (partner 1 µM)
In short: as §1

[2] = compound: COc1cc2nccc(Oc3ccc(NC(=O)C4(C(=O)Nc5ccc(F)cc5)CC4)cc3)c2cc1OC [Cabozantinib] + C[C@]1(O)C[C@@H](c2nc(-c3ccc4ccc(-c5ccccc5)nc4c3)c3c(N)nccn32)C1 [Linsitinib] (partner 1 µM)
In short: as §1

[3] = compound: COc1cc2nccc(Oc3ccc(NC(=O)C4(C(=O)Nc5ccc(F)cc5)CC4)cc3)c2cc1OC [Cabozantinib] + CC(=O)c1c(C)c2cnc(Nc3ccc(N4CCNCC4)cn3)nc2n(C2CCCC2)c1=O [Palbociclib] (partner 0.5 µM)
In short: as §1

Row | Cell Line | relative viability (Zosuquidar + Linsitinib; first compound 0.01 µM) | relative viability (Zosuquidar + Linsitinib; first compound 0.03162 µM) | relative viability (Zosuquidar + Linsitinib; first compound 0.1 µM) | relative viability (Zosuquidar + Linsitinib; first compound 0.3162 µM) | relative viability (Zosuquidar + Linsitinib; first compound 1 µM) | relative viability ([1]; first compound 0.02 µM) | relative viability ([1]; first compound 0.06325 µM) | relative viability ([1]; first compound 0.2 µM) | relative viability ([1]; first compound 0.6325 µM) | relative viability ([1]; first compound 2 µM) | relative viability ([2]; first compound 0.02 µM) | relative viability ([2]; first compound 0.06325 µM) | relative viability ([2]; first compound 0.2 µM) | relative viability ([2]; first compound 0.6325 µM) | relative viability ([2]; first compound 2 µM) | relative viability ([3]; first compound 0.02 µM) | relative viability ([3]; first compound 0.06325 µM) | relative viability ([3]; first compound 0.2 µM) | relative viability ([3]; first compound 0.6325 µM) | relative viability ([3]; first compound 2 µM)
1 | IA-LM | 0.671 | 0.766 | 0.334 | 0.654 | 0.624 | 0.995 | 1.18 | 1 | 0.946 | 1.2 | 0.704 | 0.689 | 0.683 | 0.559 | 0.696 |  |  |  |  | 
2 | NCI-H520 | 0.984 | 0.945 | 0.888 | 0.946 | 1.08 | 0.719 | 0.64 | 0.715 | 0.598 | 0.688 | 0.923 | 1.05 | 0.938 | 0.796 | 0.815 | 0.266 | 0.245 | 0.268 | 0.228 | 0.203
3 | NCI-H1915 | 1.14 | 1.07 | 1.09 | 1.12 | 1.1 | 0.525 | 0.548 | 0.511 | 0.522 | 0.473 | 1.1 | 1.12 | 1.09 | 1.01 | 1.12 | 0.584 | 0.57 | 0.518 | 0.506 | 0.55
4 | NCI-H1299 | 1.03 | 0.955 | 0.967 | 0.992 | 0.959 |  |  |  |  |  | 1.03 | 1 | 0.982 | 0.96 | 0.966 |  |  |  |  | 
5 | HCC-827 | 1 | 0.902 | 0.943 | 0.879 | 0.96 | 0.837 | 1.05 |  | 0.785 | 0.526 | 0.945 | 1.02 |  | 1.03 | 0.972 | 0.415 | 0.535 |  | 0.577 | 0.399
